Data taken from publication PMC5843810, “18th European Symposium on Radiopharmacy and Radiopharmaceuticals” (EJNMMI Radiopharmacy and Chemistry, 2016).
Like-named read-outs stand apart in the source and are kept apart here. Where a SMILES comes first, the peptide text is derived from it. Bridges are numbered along the chain shown (N, C = ends). [ ]: non-standard residue; d: D form. Ahx = NCCCCCC(=O)O; βAla = NCCC(=O)O

What was measured:
[1] = healthy Balb/c mice n=5, i.v., 1h p.i.
Procedure: The biodistribution of such prepared 68Ga-PSMA-11 was investigated in healthy Balb/c mice (n=5) after intravenous injection of 0.1mL (38 MBq/mL) (at 15, 30, 60 and 120min).

MC1R = molecular target: T1, MC1R (Mus musculus, UniProt Q01727); assay: MC1R binding affinity in B16/F10 melanoma cells; conditions: unlabelled peptides
T1 construct: endogenous in cells; host or cells: B16/F10

GRP receptors = GRP receptors (Homo sapiens, UniProt P30550); assay: GRP receptor affinity of PD-410; format: binding
Source text: Introduction: The Gastrin Releasing Peptide (GRP) receptor has high expression on prostate cancer cells. Consequently, bombesin, a 14-amino acid peptide that binds with high affinity to GRP receptors, has been widely studied for the development of radiopeptides for application in prostate cancer imaging. To overcome some limitations of radiolabelled peptides, we developed a small molecule non-peptidic radiotracer targeting GRP receptors. […] The aim of the present study is to develop a non-peptidic fluorine-18 PET radioligand with antagonist properties, for visualization of GRP receptors.

[2] = system: human breast cancer cell lines; set-up: method as in not given; conditions: ref not given; cited from earlier work
Source text: Introduction: Substituted benzotiazoles (BT) are a class of compounds with high affinity and selectivity to aryl hydrocarbon receptor (AhR), a receptor often expressed in breast cancer tissue.

HDAC6 [3] = molecular target: T2, HDAC6 (Rattus norvegicus, UniProt A0A8I6GM68); assay: Autoradiography on Wistar rat brain tissue; format: binding; conditions: rat brain slices, 100 μM
T2 construct: wild-type Wistar rat brain tissue; from tissue; host or cells: wild-type Wistar rat brain slices
Procedure: (§1) The biodistribution was studied in NMRI-mice at 2, 10, 30 and 60 min (n = 3/time point) post injection (p.i.). Organs and tissues were harvested and radioactivity was counted in a gamma-counter. […] Slices were incubated with 18.5 MBq/400μL (brain) or 18.5 MBq/250 μL (tumor) of tracer with/without 100 μM of cold authentic reference compound (KB631) or non-structural related pan-HDAC inhibitor Suberoylanilide hydroxamic acid (SAHA).

HDAC6 [4] = molecular target: T3, HDAC6 (Homo sapiens, UniProt Q9UBN7); assay: Autoradiography on PC3/LNCaP prostate tumor slices; format: binding; conditions: 100 μM
T3 construct: wild-type Wistar rat brain tissue and PC3/LNCaP prostate tumor slices; from tissue; host or cells: PC3 and LNCaP prostate tumour slices (xenografts)
T3 sequence (Q9UBN7 1-1215): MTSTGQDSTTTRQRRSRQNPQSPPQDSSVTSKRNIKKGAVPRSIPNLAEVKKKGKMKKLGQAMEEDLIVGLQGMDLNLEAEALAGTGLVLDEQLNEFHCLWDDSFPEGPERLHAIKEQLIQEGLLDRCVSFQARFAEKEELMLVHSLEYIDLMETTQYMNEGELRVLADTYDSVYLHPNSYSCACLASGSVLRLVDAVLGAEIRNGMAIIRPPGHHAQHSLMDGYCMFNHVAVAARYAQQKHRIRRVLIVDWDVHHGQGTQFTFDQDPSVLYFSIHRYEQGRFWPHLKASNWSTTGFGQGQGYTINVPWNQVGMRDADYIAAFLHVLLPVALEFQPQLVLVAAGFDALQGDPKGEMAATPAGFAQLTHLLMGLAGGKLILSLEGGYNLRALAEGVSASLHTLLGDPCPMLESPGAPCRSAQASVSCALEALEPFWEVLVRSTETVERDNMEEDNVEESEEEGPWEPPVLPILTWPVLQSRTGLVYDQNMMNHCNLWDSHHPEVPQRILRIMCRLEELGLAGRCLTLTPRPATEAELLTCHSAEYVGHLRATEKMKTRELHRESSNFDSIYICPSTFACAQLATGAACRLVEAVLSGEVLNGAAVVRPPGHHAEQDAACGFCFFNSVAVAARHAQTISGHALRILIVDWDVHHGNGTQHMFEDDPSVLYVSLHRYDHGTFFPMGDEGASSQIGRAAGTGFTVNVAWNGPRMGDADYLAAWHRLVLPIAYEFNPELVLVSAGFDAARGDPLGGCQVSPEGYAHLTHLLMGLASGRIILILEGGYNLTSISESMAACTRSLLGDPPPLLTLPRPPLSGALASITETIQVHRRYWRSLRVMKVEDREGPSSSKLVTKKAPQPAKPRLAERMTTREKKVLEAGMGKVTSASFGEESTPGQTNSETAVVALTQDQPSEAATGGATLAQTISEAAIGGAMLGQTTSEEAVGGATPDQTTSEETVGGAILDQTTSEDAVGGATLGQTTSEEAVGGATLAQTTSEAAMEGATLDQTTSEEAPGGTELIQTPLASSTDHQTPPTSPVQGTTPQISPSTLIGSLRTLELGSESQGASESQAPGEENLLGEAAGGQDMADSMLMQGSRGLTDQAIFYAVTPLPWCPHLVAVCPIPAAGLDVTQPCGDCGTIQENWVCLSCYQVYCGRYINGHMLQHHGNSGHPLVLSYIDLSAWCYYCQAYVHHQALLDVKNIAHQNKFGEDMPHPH
Procedure: as §1

[5] = PET/CT imaging in nude mice bearing U87MG xenograft tumor; format: in vivo; conditions: mouse, 90 min post injection
Procedure: Materials and methods: The PET imaging properties of [^68Ga]FSC(succ-RGD)3 were studied in nude mice bearing M21 human melanoma xenografts and human glioblastoma U87MG xenograft tumor. A parallel PET imaging of ^68GaNODAGA-RGD in same mouse bearing U87MG xenograft tumor was performed as a comparison.

[6] = Procedure: Methods: Labelling was carried out in a remote controlled synthesis unit under clean room conditions. Quality control included TLC, HPLC, GC, pH control, Ge-breakthrough, half-life, endotoxin content, and control of sterility. Storage stability after 4 h was studied and dose estimations based on animal data were carried out using OLINDA. Sprague-Dawley rats were used for an extended single dose toxicity study. The phase I clinical study included 9 patients with hepatocellular carcinoma (HCC). Static scans at 5, 30, and 60 min p.i. including 5 bed positions each were performed using the Discovery 690 PET/CT. Blood was sampled 30 and 60 min p.i. and urine 60 min p.i. and used for stability studies via HPLC.
[7] = Extended single dose toxicity study in Sprague-Dawley rats; format: in vivo
U87MG tumor = system: U87MG tumor
Procedure: Materials and Methods: The radiolabelling was performed using an automated system with inline quality control. Fraction of 68GaCl3 eluate from an organic matrix based 68Ge/68Ga generator, 400-700 MBq in 2 mL, was used to label NOTA/NODAGA/DOTA-derivatised cRGD peptides. Elution, labeling and purification procedures were performed in 20-25 min. The biodistribution was tested in tumor bearing animal models (U87MG, Walker 256, B21 and AR42J). The affinity of cyclo-RGD peptides to tumor cell-surface receptors was determined by real-time quantification using Ligand Tracer.

AR42J and U87MG = assay: Real-time binding and retention on tumor cells (Ligand Tracer); format: cell-based
Procedure: Materials and Methods: The radiolabelling was performed using an automated system with inline quality control. Fraction of 68GaCl3 eluate from an organic matrix based 68Ge/68Ga generator, 400-700 MBq in 2 mL, was used to label NOTA/NODAGA/DOTA-derivatised cRGD peptides. Elution, labeling and purification procedures were performed in 20-25 min. […] The affinity of cyclo-RGD peptides to tumor cell-surface receptors was determined by real-time quantification using Ligand Tracer.

T1 sequence (Q01727 whole entry): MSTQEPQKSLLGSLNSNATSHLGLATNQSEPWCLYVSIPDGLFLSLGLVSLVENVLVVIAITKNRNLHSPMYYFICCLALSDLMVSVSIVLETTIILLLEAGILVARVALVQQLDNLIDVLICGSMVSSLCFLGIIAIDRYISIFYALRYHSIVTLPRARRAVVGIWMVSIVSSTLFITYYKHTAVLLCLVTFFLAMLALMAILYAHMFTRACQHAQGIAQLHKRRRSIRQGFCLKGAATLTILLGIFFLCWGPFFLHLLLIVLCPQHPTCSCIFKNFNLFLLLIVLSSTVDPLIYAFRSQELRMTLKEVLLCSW
Sequence of GRP receptors (P30550 whole entry): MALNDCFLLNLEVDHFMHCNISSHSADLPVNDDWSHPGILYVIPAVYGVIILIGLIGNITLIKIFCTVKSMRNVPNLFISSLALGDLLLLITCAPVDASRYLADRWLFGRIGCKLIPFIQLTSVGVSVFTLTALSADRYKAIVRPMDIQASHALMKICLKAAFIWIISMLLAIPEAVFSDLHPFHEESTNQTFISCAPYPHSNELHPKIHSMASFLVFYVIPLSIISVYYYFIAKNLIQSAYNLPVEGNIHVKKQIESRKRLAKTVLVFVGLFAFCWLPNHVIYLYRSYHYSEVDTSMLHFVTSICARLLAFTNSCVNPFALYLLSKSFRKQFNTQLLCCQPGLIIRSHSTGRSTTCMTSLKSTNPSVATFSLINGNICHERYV
T2 sequence (A0A8I6GM68 whole entry): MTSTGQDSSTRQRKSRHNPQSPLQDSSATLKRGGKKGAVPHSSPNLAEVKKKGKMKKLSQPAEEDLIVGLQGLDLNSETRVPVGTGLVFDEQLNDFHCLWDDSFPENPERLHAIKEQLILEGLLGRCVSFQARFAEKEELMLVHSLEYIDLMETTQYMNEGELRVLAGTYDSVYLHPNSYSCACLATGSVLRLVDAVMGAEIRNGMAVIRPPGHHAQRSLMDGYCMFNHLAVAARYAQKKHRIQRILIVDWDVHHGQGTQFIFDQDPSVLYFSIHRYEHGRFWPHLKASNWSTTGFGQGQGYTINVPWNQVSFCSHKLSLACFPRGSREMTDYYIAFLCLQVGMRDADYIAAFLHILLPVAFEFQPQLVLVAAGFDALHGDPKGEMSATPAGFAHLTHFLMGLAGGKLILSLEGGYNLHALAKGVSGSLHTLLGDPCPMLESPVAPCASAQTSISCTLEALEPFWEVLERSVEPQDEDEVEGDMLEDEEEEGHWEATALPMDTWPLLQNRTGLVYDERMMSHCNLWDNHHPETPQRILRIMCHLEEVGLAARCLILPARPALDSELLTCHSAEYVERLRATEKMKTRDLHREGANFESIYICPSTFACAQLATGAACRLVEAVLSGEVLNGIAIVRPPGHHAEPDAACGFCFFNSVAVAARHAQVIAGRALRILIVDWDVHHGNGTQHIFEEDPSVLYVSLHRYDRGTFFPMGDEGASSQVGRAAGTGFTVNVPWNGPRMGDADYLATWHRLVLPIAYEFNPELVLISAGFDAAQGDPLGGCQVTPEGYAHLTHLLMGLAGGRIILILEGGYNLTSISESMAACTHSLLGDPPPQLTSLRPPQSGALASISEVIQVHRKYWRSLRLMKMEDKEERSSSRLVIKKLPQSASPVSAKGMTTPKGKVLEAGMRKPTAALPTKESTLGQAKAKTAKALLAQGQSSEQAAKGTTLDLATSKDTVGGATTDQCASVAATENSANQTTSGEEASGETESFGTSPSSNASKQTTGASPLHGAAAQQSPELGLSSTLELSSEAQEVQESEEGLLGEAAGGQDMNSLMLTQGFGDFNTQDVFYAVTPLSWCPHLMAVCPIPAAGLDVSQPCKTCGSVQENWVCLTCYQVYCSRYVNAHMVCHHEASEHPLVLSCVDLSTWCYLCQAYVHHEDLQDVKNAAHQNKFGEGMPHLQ

Compound: O=C(O)CCc1ccc(O)c(CN(CCN(CC(=O)O)Cc2cc(CCC(=O)NCCCCCC(=O)NCCCC[C@H](NC(=O)N[C@@H](CCC(=O)O)C(=O)O)C(=O)O)ccc2O)CC(=O)O)c1 [68Ga-PSMA-11, Glu-CO-Lys(Ahx)-HBED-CC, metal not drawn]
- urine elimination [1]: > 70%

Compound: CC(C)[C@H](NC(=O)[C@@H]1CCCN1C(=O)[C@H](CCCNC(=N)N)NC(=O)[C@@H]1CCC(=O)NCCCC[C@H](NC(=O)CCNC(=O)CCCCCNC(=O)[C@@H](N)CS)C(=O)N[C@@H](CCC(=O)O)C(=O)N[C@@H](Cc2c[nH]cn2)C(=O)N[C@H](Cc2ccccc2)C(=O)N[C@@H](CCCNC(=N)N)C(=O)N[C@@H](Cc2c[nH]c3ccccc23)C(=O)N1)C(N)=O [NAP_NS2, H-Cys-Ahx-βAla^3-c[Lys^4-Glu-His-D-Phe-Arg-Trp-Glu^10]-Arg^11-Pro-Val-NH2] (H-C[Ahx][βAla]KEH[dF]RWERPV-NH2; lactam 4-10)
- Ki (MC1R): 7.1 ± 2.4 nM

Compound: C[C@@](Cc1c[nH]c2ccccc12)(NC(=O)Nc1ccc([N+](=O)[O-])cc1)C(=O)NCC1(c2ccc(OCCF)cn2)CCCCC1 [PD-410, (S)-3-(1H-indol-3-yl)-N-[1-[5-(2-fluoroethoxy)pyridin-2-yl]cyclohexylmethyl]-2-methyl-2-[3-(4-nitrophenyl)ureido]propionamide]
- Ki (GRP receptors): 38 ± 2 nM

Compound: COc1ccc(-c2nc3cc(F)ccc3s2)cc1OC [PMX 610, 2-(3,4-dimethoxyphenyl)-5-fluorobenzothiazole]
- GI50 [2]: < 0.1 nM

Compound: O=C(CCCCCCC(=O)Nc1ccccc1)NO [SAHA, Suberoylanilide hydroxamic acid]
- displacement of [11C]KB631 binding, brain (HDAC6 [3]): 73%
- displacement of [11C]KB631 binding, LNCaP (HDAC6 [4]; LNCaP tumor slices): 59%
- displacement of [11C]KB631 binding, PC3 (HDAC6 [4]; PC3 tumor slices): 39%

Compound: N=C(N)NCCC[C@@H]1NC(=O)[C@H](CCCCNC(=O)CCC(C(=O)O)N2CCN(CC(=O)O)CCN(CC(=O)O)CC2)NC(=O)[C@@H](Cc2ccccc2)NC(=O)[C@H](CC(=O)O)NC(=O)CNC1=O (stereo partly drawn) [[68Ga]NODAGA-RGD, metal not drawn]
- tissue to tissue ratio at […] ([5]; tumour and kidneys, read-out: tumor/kidneys ratio): 1.6
- tissue to tissue ratio at […] ([5]; tumour and muscle, read-out: tumor/muscle ratio): 5
- side effects in clinical study ([6]; 9 patients with HCC): no severe side effects were observed
- calculated effective dose ([6]; human, in vivo): 21.5±5.4 μSv/MBq
- metabolic stability ([6]; patient blood (30, 60 min p.i.) and urine (60 min p.i.), HPLC): High metabolic stability
- tolerability in single dose toxicity study [7]: well tolerated in animals

Compound: DOTA-E-[c(RGDfK)2] (head to tail) [68Ga-DOTA-E-[c(RGDfK)2], 68Ga-labelled dimeric cyclo-RGD peptide]
- tumor uptake (U87MG tumor): Up to 5.3 % ID/g
- retention, from activity in the cells (AR42J and U87MG): up to 58%
